Measurements from patent publication US9745288B2, “Compounds and methods for treating cancer by inhibiting the urokinase receptor” (Indiana University Research and Technology Corporation, priority 2011, dated 2017).

What was measured:
MDA-MB-231 cells = assay: Migration assay (Boyden chamber without Matrigel); format: cell-based; conditions: Homo sapiens
Protocol: Invasion and Migration Assays. These assays were performed using BD BioCoat Matrigel Invasion Chamber (Cat. 354480, BD Biosciences, Bedford, Mass.). The undersurface of the inserts was coated with 30 μg/mL of fibronectin (Sigma, F2006) in PBS at 4° C. overnight. The inserts were washed with PBS once. Then, 0.5 mL of serum-free medium was separately added to the upper and lower chambers to equilibrate the Matrigel invasion chambers at 37° C., 5% CO2 for 2 hours. After starvated with serumfree DMEM or 4 hours, subconfluent MDA-MB-231 cells were trypsinized and resuspended in 0.1% FBS DMEM. 5×10^4 cells in 500 μL of 0.1% FBS DMEM containing various compounds or 1.0% DMSO (as control) were added to the upper chambers. […] We incubated the invasion chambers for 3 hours at 37° C., 5% CO2. Non-invaded cells were removed from the upper chamber with a cotton swab. The invaded cells were fixed with 100% methanol and then stained with Hematoxylin Stain Harris Modified Method (Fisher, SH30-500D). The filters were washed with water 3 times. Filters were air dried and the invaded cells were counted in ten randomly selected microscopic fields (×200 magnification). The experiment was performed in triplicate per group and shown by mean±SE.

TMD-231 cells = assay: TMD-231 mammary fat pad xenograft, tumor growth and lung metastasis; format: in vivo
Text: Mouse Xenograft Studies. NOD/SCID mice were obtained from the on-site breeding colony maintained by the In Vivo Therapeutics Core at the Indiana University Simon Cancer Center (IUSM, Indianapolis, Ind.) and maintained in pathogen-free conditions within the laboratory animal resources center (LARC) at the Indiana University School of Medicine according to an approved protocol by the Institutional animal care and use committee (IACUC) committee.
For metastasis studies, m.f.p. tumors were allowed to grow to approximately 100 mm^3 mice. Mice were assigned to treatment group based on average tumor size/weight. Following a recovery period of two days, mice received treatment of investigational drug (n=15) or a PBS solvent control (n=15). After four weeks mice were euthanized, the lungs were resected, fixed in formalin solution, sectioned, and stained with hematoxylin and eosin (H&E) for analysis. […] Tumor volume were be calculated as Length*Width^2/2 in millimeters.
TMD-231 cells were inoculated into the mammary fat pad of female NOD/SCID mice. Dosing was initiated at day 18 post implantation. Animals were randomized and treated with vehicle or with IPR-69 by daily oral gavage at a dose of 150 mg/kg (n=11). Tumor volumes were determined by caliper measurements on a […], and calculated according to the formula (α2×β)/2, where α is the shorter and β is the longer of the two dimensions. Tumor volumes were determined by caliper measurements on a weekly basis. The study was conducted over a period of 68 days. […] Once the tumor volume reached 30 mm^3 to 50 mm^3, animals were randomized and treated with vehicle alone as control or 150 mg/kg IPR-69 three times a week for 10 weeks by oral gavage. Tumor volumes were determined by caliper measurements obtained weekly. Over the course of the study, several mice were sacrificed to determine whether breast tumor cells had metastasized to the lungs. At the end of the study, control and experimental animals were sacrificed and organs (lungs) were removed and evaluated for the presence of tumors. The number and size of metastasis in two to five fields per sample were calculated. […] Briefly, percentage of staining was categorized as “0” if there was no nuclear/cytoplasmic expression, “1” for up to 10% positive tumor nuclei/cells, “2” for 11-20% and until a maximum score of “10”. Intensity was scored as “1+,” “2+,” and “3+” for weak, moderate and strong staining respectively.

[1] = system: different signaling molecules; assay: Western blot analysis of signaling; format: cell-based; conditions: n=1
Protocol: In light of the previously reported role of uPAR in signaling, the effect of IPR-993, IPR-737, IPR-81 and IPR-69 on signaling was studied by Western blot analysis (FIG. 23). A concentration-dependent study was carried out for IPR-737.

CYP2C9 = CYP2C9 (Homo sapiens, UniProt P11712); assay: Fluorescence-based CYP2C9 inhibition assay; conditions: human
Chain of CYP2C9 (P11712 whole entry): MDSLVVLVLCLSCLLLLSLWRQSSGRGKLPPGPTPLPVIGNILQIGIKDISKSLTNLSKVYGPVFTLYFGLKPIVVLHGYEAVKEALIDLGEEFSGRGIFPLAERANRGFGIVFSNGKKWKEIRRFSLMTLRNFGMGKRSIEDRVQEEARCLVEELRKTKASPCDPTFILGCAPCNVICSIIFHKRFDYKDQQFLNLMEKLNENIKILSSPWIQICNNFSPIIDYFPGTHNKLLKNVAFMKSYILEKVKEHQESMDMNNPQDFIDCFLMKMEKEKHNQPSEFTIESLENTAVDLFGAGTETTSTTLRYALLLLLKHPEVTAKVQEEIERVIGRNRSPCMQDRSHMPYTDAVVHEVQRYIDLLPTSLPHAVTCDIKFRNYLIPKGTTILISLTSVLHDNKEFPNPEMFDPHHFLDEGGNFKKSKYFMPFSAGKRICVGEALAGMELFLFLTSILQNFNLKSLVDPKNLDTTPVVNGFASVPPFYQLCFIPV
Protocol: CYP metabolism was measured using a fluorescence-based assay designed by Cohen et al.,^41 recently implemented by Invitrogen (Carlsbad, Calif.).

[2] = In vivo PK study, plasma HPLC MS/MS; set-up: species or system mouse; conditions: mice
Protocol: Pharmacokinetics of the Leads in Rodents. A method to quantify IPR-69 in plasma was developed using HPLC-MS/MS (API 3200; Applied Biosystems). A 20 μL plasma sample was extracted with methyl tertiary butyl ether (MTBE) under neutral conditions (0.1 M phosphate buffer pH=7.4) using temazepam as the internal standard. The extract is evaporated, reconstituted with mobile phase and injected into the HPLC. The HPLC column is a C-8 50×4.6 mm 5-μm column and separation of UPR and temazepam occurred by a linear gradient mobile phase starting with acetonitrile:0.1% formic acid (10:90) and changing to 80:20. The m/z Q1 and Q3 settings on the API 3200 for UPR and temazepam are 418/297 and 301/255, respectively. The lower limit of quantification of IPR-69 is 1 ng/mL using 20 μL of plasma. A standard response curve of IPR-69 was created with concentrations that varied from 1 ng/mL to 1000 ng/mL using 300 ng/mL of temazepam for each sample. To determine drug concentrations of the lead inhibitors in the pharmacological models, the PK properties of the compounds in mice must be characterized. The PK of IPR-69 was determined in NOD/SCID mice following a single dose given PO. The study design used 3 mice per time point. Blood was collected at time intervals from 0 to 24 hours after dosing (8 time points), quantified by the procedure described above. Pharmacokinetic parameters for IPR-69 including area under the curve (AUC), area under the moment curve (AUMC), and t1/2 were estimated using non-compartmental methods with Excel®. The maximum plasma concentration (Cmax) and time of Cmax (tmax) were obtained from the data. The AUC from zero to infinity (AUC0-∞) was estimated from the AUC0-t (time zero to the last quantifiable concentration Clast) and the AUC from Clast to infinity, Clast/kel, where kel is the rate constant of elimination. The AUMC0-∞ was estimated by an analogous manner. The systemic clearance (Cl/F, where F=bioavailability) of IPR-69 was calculated from the dose and AUC0-∞. […]

MMP-9 = assay: Gelatin zymography of MDA-MB-231 conditioned medium; format: cell-based, human
Protocol: Gelatin Zymography. MDA-MB-231 cells were treated with different concentrations of uPAR compounds in serum free medium for 24 h, the conditioned medium were collected, concentrated by Amicon Ultra centrifugal filter units (Millipore, #UFC500324), proteins were normalized and electrophoresed on sodium dodecyl sulfate (SDS)-polyacrylamide gels (10%) containing 1 mg/mL gelatin. After electrophoresis, the gel was washed twice in 50 mM Tris-HCl (pH 7.6) containing 5 mM CaCl2 and 2.5% Triton X-100 for 30 minutes at room temperature and incubated in buffer that contained 50 mM Tris-HCl (pH 7.6), 200 mM NaCl, 10 mM CaCl2 at 37° C. for 36 h. Then, the gels were stained with 0.05% Coomassie brilliant blue (CBB) and destained with 30% methanol in 10% acetic acid. Areas of gelatinolytic degradation appeared as transparent bands on the blue stained background of the gel. Data were quantified using Image J.
To degrade collagen within the ECM, malignant cells unleash a series of extracelullar proteases known as matrix metalloproteinases (MMPs).

## Cc1cc(C)cc(NC(=O)c2cnn(-c3ccc(C(C)C)cc3)c2C2CCNCC2)c1 [IPR-69, N-(3,5-dimethylphenyl)-1-(4-isopropylphenyl)-5-(piperidin-4-yl)-1H-pyrazole-4-carboxamide]
MDA-MB-231 cells
  IC50: 40 µM
TMD-231 cells; 150 mg/kg oral gavage
  treated mice with metastatic lesions of score >2: 3
TMD-231 cells; 150 mg/kg oral gavage, average, 68 days
  tumor volume at the end of the study: 779 mm^3
TMD-231 cells; 150 mg/kg oral gavage, n=11
  treated mice with signs of metastatic lesions in the lungs: 3 out of 11
TMD-231 cells; compared with untreated mice
  metastasis to the lungs: less extensive metastasis to the lungs
TMD-231 cells; doses as high as 150 mg/kg, mice
  tolerability: well tolerated
[1]
  effect on signaling molecules: did not seem to be much of an effect
CYP2C9
  inhibition of CYP2C9: little inhibition of CYP2C9
[2]; NOD/SCID, mouse, plasma, estimated, single oral gavage of 50 mg/kg
  half-life: ~2 h
[2]
  oral bioavailability: orally bioavailable
[2]; single oral gavage of 50 mg/kg
  time of maximum level: approximately 5 hours
MMP-9
  MMP-9 activity in gelatin zymography: some inhibition of MMP-9
MMP-9; estimated, read-out: IC50 for inhibition of MMP-9 activity
  IC50: 25 µM
